# Tests used:
# Histone deacetylase 11 = biological target: T1, Histone deacetylase 11 (Homo sapiens, UniProt Q96DB2); experiment: Inhibition of HDAC11 (unknown origin)
# T1 sequence (Q96DB2 whole entry): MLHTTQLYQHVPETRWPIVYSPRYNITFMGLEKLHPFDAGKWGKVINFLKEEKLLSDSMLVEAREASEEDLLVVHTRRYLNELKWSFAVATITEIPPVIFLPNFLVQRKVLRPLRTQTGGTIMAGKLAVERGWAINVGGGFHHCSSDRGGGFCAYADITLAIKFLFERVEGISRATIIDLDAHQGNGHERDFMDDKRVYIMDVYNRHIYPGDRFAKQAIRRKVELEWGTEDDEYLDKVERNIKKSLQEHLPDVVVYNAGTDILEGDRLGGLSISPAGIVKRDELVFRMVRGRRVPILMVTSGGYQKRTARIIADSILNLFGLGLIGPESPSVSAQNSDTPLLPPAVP
# Histone deacetylase 3 = Histone deacetylase 3 (Homo sapiens, UniProt O15379); experiment: Inhibition of HDAC3 (unknown origin)
# Histone deacetylase 5 = Histone deacetylase 5 (Homo sapiens, UniProt Q9UQL6); experiment: Inhibition of HDAC5 (unknown origin)
# [1] = biological target: T2, Protein deacetylase HDAC6 (Homo sapiens, UniProt Q9UBN7); experiment: Inhibition of HDAC6 (unknown origin)
# T2 sequence (Q9UBN7 whole entry): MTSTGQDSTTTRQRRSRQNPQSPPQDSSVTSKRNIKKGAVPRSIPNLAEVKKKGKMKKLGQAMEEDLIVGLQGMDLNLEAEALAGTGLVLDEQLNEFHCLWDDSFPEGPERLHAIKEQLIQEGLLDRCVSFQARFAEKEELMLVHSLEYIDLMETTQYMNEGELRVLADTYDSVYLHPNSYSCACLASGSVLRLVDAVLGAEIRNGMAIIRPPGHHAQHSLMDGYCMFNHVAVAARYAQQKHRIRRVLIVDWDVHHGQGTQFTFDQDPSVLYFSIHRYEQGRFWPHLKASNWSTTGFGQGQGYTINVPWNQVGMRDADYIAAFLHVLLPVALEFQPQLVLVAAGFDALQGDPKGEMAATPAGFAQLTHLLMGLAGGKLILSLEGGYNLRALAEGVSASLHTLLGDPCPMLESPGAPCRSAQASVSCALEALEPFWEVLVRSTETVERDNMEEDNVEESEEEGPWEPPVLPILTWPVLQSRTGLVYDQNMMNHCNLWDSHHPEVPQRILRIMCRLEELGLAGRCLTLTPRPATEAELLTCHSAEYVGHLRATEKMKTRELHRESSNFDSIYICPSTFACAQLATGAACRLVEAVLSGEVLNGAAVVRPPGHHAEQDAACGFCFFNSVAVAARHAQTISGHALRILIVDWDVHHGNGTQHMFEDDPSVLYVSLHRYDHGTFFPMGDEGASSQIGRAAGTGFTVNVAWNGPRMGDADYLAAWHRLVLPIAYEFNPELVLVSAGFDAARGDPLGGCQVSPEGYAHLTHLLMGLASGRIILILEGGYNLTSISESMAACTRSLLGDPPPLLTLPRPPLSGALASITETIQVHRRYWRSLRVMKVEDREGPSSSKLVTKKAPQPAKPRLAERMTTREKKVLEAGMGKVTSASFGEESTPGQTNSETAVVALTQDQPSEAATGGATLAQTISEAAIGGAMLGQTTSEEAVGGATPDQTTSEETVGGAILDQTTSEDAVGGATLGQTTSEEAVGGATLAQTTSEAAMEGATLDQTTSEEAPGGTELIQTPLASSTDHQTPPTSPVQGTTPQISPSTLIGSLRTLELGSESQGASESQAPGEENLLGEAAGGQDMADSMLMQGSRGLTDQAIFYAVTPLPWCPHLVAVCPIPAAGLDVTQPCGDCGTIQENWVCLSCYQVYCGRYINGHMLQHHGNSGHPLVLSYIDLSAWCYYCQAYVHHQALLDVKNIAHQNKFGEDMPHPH
# [2] = biological target: T3, Polyamine deacetylase HDAC10 (Homo sapiens, UniProt Q969S8); experiment: Inhibition of HDAC10 (unknown origin)
# T3 sequence (Q969S8 whole entry): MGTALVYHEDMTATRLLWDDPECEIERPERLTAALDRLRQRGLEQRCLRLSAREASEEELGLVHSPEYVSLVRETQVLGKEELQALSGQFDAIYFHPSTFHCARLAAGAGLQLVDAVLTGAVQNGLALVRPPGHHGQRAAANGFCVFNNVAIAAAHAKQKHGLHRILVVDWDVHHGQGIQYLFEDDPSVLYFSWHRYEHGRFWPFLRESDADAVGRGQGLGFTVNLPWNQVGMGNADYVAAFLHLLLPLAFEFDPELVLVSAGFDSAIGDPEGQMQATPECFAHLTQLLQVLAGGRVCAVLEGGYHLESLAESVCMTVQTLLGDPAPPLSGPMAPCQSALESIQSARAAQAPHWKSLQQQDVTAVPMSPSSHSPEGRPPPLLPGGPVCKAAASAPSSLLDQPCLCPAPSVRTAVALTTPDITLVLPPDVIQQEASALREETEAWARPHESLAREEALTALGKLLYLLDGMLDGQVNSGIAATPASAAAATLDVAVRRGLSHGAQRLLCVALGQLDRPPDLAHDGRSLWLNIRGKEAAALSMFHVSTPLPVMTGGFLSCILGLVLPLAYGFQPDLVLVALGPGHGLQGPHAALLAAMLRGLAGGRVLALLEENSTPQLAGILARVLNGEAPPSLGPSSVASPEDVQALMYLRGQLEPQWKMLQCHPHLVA
# Histone deacetylase 9 = Histone deacetylase 9 (Homo sapiens, UniProt Q9UKV0); experiment: Inhibition of HDAC9 (unknown origin)
# Chain of Histone deacetylase 9 (Q9UKV0 whole entry): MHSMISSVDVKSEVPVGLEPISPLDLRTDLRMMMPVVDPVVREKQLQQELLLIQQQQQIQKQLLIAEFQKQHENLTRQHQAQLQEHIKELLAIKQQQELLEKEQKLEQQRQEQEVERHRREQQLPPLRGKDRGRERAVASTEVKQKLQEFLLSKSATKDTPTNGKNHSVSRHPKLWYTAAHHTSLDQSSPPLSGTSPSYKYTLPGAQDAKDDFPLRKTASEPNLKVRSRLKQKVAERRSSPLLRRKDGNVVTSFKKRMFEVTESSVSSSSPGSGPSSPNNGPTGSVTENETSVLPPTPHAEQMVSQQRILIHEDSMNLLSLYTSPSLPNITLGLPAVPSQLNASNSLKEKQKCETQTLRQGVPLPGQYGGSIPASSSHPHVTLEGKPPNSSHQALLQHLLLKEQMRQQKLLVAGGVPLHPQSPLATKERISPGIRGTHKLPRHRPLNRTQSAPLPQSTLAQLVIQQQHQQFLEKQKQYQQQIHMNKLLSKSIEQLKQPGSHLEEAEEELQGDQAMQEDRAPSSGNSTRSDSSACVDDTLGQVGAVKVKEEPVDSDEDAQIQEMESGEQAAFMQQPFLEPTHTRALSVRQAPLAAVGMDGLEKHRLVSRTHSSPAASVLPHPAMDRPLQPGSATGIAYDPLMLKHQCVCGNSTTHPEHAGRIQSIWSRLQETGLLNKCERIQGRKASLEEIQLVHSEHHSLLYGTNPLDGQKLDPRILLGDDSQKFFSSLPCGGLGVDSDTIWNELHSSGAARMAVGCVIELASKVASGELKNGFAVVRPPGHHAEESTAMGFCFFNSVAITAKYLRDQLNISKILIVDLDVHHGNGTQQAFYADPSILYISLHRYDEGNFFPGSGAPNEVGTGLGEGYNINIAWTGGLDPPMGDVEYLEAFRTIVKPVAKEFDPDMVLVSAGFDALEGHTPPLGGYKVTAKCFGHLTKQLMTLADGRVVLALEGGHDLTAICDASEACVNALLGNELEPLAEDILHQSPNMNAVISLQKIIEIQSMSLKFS
# Chain of Histone deacetylase 3 (O15379 whole entry): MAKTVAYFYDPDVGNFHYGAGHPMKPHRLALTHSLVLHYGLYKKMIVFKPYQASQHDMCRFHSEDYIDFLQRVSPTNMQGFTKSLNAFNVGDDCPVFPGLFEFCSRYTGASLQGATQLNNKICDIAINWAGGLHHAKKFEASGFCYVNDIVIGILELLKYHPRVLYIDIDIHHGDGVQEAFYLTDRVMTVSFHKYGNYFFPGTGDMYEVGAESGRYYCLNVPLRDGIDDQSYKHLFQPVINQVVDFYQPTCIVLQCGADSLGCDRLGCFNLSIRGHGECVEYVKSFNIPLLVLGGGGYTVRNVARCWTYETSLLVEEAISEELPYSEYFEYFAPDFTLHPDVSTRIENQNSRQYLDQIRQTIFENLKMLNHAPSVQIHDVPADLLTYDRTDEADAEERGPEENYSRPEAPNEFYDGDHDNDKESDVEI
# Chain of Histone deacetylase 5 (Q9UQL6 whole entry): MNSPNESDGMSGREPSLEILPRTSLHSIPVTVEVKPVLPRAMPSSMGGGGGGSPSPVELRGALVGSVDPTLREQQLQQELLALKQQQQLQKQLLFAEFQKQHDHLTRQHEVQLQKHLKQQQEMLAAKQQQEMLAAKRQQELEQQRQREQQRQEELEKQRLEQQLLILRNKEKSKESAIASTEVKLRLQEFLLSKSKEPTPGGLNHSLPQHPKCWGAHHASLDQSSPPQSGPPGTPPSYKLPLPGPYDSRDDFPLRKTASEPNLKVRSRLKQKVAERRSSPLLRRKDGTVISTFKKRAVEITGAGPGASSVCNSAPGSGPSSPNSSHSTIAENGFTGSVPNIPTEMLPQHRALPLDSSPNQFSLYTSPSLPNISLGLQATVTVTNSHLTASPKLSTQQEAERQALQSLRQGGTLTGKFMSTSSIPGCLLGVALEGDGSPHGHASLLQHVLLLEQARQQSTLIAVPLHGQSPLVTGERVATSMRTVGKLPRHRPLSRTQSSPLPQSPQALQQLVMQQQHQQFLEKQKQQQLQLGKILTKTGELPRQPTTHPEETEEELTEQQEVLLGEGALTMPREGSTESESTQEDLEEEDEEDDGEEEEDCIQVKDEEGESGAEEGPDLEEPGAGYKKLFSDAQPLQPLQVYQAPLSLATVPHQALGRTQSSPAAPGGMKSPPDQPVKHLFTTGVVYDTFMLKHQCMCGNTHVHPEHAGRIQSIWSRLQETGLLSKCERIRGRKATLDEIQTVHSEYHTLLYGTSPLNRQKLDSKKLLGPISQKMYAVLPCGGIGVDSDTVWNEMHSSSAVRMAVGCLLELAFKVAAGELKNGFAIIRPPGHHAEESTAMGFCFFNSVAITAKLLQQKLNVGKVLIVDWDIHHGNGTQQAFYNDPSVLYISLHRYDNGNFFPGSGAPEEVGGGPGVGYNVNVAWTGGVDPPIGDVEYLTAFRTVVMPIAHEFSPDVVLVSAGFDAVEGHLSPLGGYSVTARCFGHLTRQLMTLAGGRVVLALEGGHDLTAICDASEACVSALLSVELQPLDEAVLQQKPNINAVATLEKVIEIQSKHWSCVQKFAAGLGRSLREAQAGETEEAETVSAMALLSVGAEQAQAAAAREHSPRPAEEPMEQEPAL
smiles,measurement,setting,value
O=C(NO)c1ccc(CN2c3ccccc3[S+]([O-])C[C@H]3CCCC[C@H]32)cc1 (stereo partly specified),IC50,Histone deacetylase 11,0.54 µM
same,IC50,Histone deacetylase 3,26 µM
same,IC50,Histone deacetylase 5,12 µM
same,IC50,[1],0.1 µM
same,IC50,[2],14 µM
same,IC50,Histone deacetylase 9,8.9 µM

# Reference: ChEMBL document CHEMBL6078616, “Seven-membered N-heterocycles as approved drugs and promising leads in medicinal chemistry as well as the metal-free domino access to their scaffolds” (Eur J Med Chem, 2024)
